From article PMC11011685, “4-(Azolyl)-Benzamidines as a Novel Chemotype for ASIC1a Inhibitors” (International Journal of Molecular Sciences, 2024)

Experiments:
Assay type in all cases: cell-based
[1] = molecular target: T1, human ASIC1a (hASIC1a) (Homo sapiens, UniProt P78348); test: whole-cell patch clamp, residual current I/Io at […]; details: 100 µM
T1 construct: gene ASIC1; native hASIC1a endogenously expressed in HEK 293 cells
T1 sequence (P78348 1-528): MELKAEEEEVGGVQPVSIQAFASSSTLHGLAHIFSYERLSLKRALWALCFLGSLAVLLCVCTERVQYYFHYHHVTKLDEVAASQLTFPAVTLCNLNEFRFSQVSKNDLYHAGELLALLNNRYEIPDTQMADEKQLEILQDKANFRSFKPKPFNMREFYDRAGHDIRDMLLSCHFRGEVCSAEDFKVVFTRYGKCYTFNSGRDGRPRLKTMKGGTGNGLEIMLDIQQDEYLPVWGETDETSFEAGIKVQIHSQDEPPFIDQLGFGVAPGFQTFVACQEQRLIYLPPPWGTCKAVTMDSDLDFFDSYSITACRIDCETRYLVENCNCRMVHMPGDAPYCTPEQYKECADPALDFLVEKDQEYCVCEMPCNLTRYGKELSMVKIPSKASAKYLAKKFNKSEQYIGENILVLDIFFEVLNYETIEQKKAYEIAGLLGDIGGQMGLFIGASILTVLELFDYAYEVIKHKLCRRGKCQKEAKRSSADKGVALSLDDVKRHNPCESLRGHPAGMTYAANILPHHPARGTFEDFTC

[2] = molecular target: T1, human ASIC1a (hASIC1a); test: whole-cell patch clamp, residual current I/Io at […] (weak); details: 100 µM
[3] = molecular target: T1, human ASIC1a (hASIC1a); test: whole-cell patch clamp, pH […] to […] evoked current, dose-response
[4] = molecular target: T1, human ASIC1a (hASIC1a); test: whole-cell patch clamp, residual current I/Io at […] (recovery […]); details: 100 µM

EN300-257412 was tested. Which “I/Io (Mean ± SD), %” value [1] did it give?
The value was 37 ± 8 % I/Io at 100 µM.

EN300-2324118 was tested. Which “I/Io (Mean ± SD), %” value [2] did it give?
The value was 65 ± 3 % I/Io at 100 µM.

EN300-262584 was tested. Which “I/Io (Mean ± SD), %” value [1] did it give?
The value was 19 ± 8 % I/Io at 100 µM.

With EN300-257539 as the substance, how does the IC50 [3] read?
The IC50 was 3.5 ± 0.5 µM.

How did the “I/Io (Mean ± SD), %” value [4] turn out when EN300-256317 was run?
Its value is 7 ± 2 % I/Io at 100 µM.

How did the “I/Io (Mean ± SD), %” value [2] turn out when EN300-256318 was run?
Its value is 76 ± 7 % I/Io at 100 µM.

With EN300-264105 as the substance, how does the IC50 [3] read?
Its IC50 is 6 ± 0.6 µM.

Which IC50 [3] does the source give for EN300-268551 here?
The IC50 was 25 ± 2 µM.
